In PMC6934681, “Small molecule allosteric uncoupling of microtubule depolymerase activity from motility in human Kinesin-5 during mitotic spindle assembly” (Scientific Reports, 2019):

Target: T1, Eg5 (human Kinesin-5) (Homo sapiens, UniProt P52732)
T1 construct: gene KIF11; motor domain (residues 1–369); with microtubules (bovine brain tubulin)
T1 sequence (P52732 1-369): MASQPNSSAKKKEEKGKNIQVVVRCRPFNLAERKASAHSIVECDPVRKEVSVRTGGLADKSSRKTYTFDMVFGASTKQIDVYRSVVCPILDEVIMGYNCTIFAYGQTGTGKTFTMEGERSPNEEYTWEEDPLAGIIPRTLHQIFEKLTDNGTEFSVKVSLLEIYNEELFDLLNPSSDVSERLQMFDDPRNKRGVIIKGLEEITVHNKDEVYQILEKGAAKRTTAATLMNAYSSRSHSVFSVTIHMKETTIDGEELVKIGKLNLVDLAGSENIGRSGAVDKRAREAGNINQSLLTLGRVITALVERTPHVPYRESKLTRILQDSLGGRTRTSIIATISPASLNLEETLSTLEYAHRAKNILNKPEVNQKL
Experiment: microtubule depolymerization turbidity assay with purified Eg5 motor domain, single concentration […] AMPPNP
Assay type: biochemical

In the case of `Nc1ncnc2c1ncn2[C@@H]1O[C@H](CO[P@](=O)(O)O[P@](=O)(O)NP(=O)(O)O)[C@@H](O)[C@H]1O` [AMP, AMPPNP], the “microtubule depolymerization turbidity assay with purified Eg5 motor domain, sin” value is reported as “treatment with excess orthosteric inhibitor, AMPPNP, completely inhibited its microtubule depolymerization ability”.
